The record followed here is patent publication US20250289787A1, “HERBICIDAL 2-OXO-NICOTINIC ACID DERIVATIVES” (SYNGENTA CROP PROTECTION AG, priority 2022, published 2025).

Each structure is given as a SMILES string.

Common to all, as to assay type: in vivo
What all share (parameters): key: 5=81-100%; 4=61-80%; 3=41-60%; 2=21-40%; 1=1-20%; 0=no damage to the plant; -=not tested

Test [1] concerns Amaranthus palmeri (AMAPA). The test is described as follows: Pre-emergence test, herbicidal damage. The settings on record: 1000 g/ha unless otherwise stated, evaluated after 13 days, five-point scale.
Test [2] relates to Setaria faberi (SETFA). The test is described as follows: Pre-emergence test, herbicidal damage. The settings on record: 1000 g/ha unless otherwise stated, evaluated after 13 days, five-point scale.
Test [3] deals with Echinochloa crus-galli (ECHCG). Kind of test: Post-emergence test, herbicidal damage. The settings on record: sprayed after 8 days cultivation, 1000 g/ha unless otherwise stated, evaluated after 13 days, five-point scale. How it is done:
(§1) Seeds of a variety of test species are sown in standard soil in pots Amaranthus palmeri (AMAPA), (Amaranthus retoflexus (AMARE), Echinochloa crus-galli (ECHCG), Zea mays (ZEAMX), Ipomoea 5 hederacea (IPOHE), and Setaria faberi (SETFA). After 8 days cultivation under controlled conditions in a glasshouse (at 24° C./16° C., day/night; 14 hours light; 65% humidity), the plants are sprayed with an aqueous spray solution derived from the formulation of the technical active ingredient in acetone/water (50:50) solution containing 0.5% Tween 20 (polyoxyethelyene sorbitan monolaurate, CAS RN 9005-64-5). Compounds are applied at 1000 g/ha unless otherwise stated. The test plants are then grown in a glasshouse under controlled conditions in a glasshouse (at 24° C./16° C., day/night; 14 hours light; 65% humidity) and watered twice daily. After 13 days the test is evaluated for the percentage damage caused to the plant. The biological activities are shown in the following table on a five-point scale (5=81-100%; 4=61-80%; 3=41-60%; 2=21-40%; 1=1-20%; 0=no damage to the plant; -=not tested).

The subject of test [4] is Ipomoea hederacea (IPOHE). The test is described as follows: Post-emergence test, herbicidal damage. The settings on record: sprayed after 8 days cultivation, 1000 g/ha unless otherwise stated, evaluated after 13 days, five-point scale. How it is done:
as §1

The test system of test [5] is Zea mays (ZEAMX). Kind of test: Post-emergence test, herbicidal damage. The settings on record: sprayed after 8 days cultivation, 1000 g/ha unless otherwise stated, evaluated after 13 days, five-point scale. How it is done: as §1
In test [6] the test system is Amaranthus palmeri (AMAPA). Kind of test: Post-emergence test, herbicidal damage. The settings on record: sprayed after 8 days cultivation, 1000 g/ha unless otherwise stated, evaluated after 13 days, five-point scale. How it is done:
as §1

Test [7] relates to Amaranthus retoflexus (AMARE). The test is described as follows: Post-emergence test, herbicidal damage. The settings on record: sprayed after 8 days cultivation, 1000 g/ha unless otherwise stated, evaluated after 13 days, five-point scale. As for the experimental part: as §1
Test [8] deals with Setaria faberi (SETFA). Kind of test: Post-emergence test, herbicidal damage. The settings on record: sprayed after 8 days cultivation, 1000 g/ha unless otherwise stated, evaluated after 13 days, five-point scale. How it is done: as §1
For test [9], the system named is Ipomoea hederacea (IPOHE). The test is described as follows: Pre-emergence test, herbicidal damage. The settings on record: 1000 g/ha unless otherwise stated, evaluated after 13 days, five-point scale.
Test [10] concerns Amaranthus retoflexus (AMARE). Kind of test: Pre-emergence test, herbicidal damage. The settings on record: 1000 g/ha unless otherwise stated, evaluated after 13 days, five-point scale.
Test [11] relates to Zea mays (ZEAMX). Kind of test: Pre-emergence test, herbicidal damage. The settings on record: 1000 g/ha unless otherwise stated, evaluated after 13 days, five-point scale.
For test [12], the system named is Echinochloa crus-galli (ECHCG). Kind of test: Pre-emergence test, herbicidal damage. The settings on record: 1000 g/ha unless otherwise stated, evaluated after 13 days, five-point scale.

Consider `Cc1c(Cl)c(-c2ccc(Cl)c(Cl)c2)c(C(=O)O)c(=O)n1-c1ccc(Cl)cc1F` [Compound 25, 5-chloro-1-(4-chloro-2-fluoro-phenyl)-4-(3,4-dichlorophenyl)-6-methyl-2-oxo-pyridine-3-carboxylic acid], for which the “percentage damage caused to the plant, AMAPA” value in test [1] is 4 (4=61-80%); in test [6] it was 3 (3=41-60%). In addition, the “percentage damage caused to the plant, SEFTA” value in the test with Setaria faberi (SETFA) [2] is listed as 2 (2=21-40%); in the test on Setaria faberi (SETFA) [8], 1 (1=1-20%). Further, the results for the “percentage damage caused to the plant, ECHCG” value in test [3] and in test [12] were 1 (1=1-20%) and 2 (2=21-40%), respectively. Moreover, the “percentage damage caused to the plant, IPOHE” value in test [4] and in test [9] was 1 (1=1-20%) in each case. In addition, the “percentage damage caused to the plant, ZEAMX” value in the test with Zea mays (ZEAMX) [5] and in the test with Zea mays (ZEAMX) [11] was 1 (1=1-20%) in each case. Also, the “percentage damage caused to the plant, AMARE” value is recorded as 3 (3=41-60%) in test [7] and 4 (4=61-80%) in test [10].

Take `Cc1[nH]c(=O)c(C(=O)O)c(-c2ccc(Cl)c(Cl)c2)c1Cl` [Compound 2, 5-chloro-4-(3,4-dichlorophenyl)-6-methyl-2-oxo-1H-pyridine-3-carboxylic acid]: the “percentage damage caused to the plant, AMAPA” value in [1] and in [6] was 0 each time. In addition, the “percentage damage caused to the plant, SEFTA” value in the test on Setaria faberi (SETFA) [2] and with Setaria faberi (SETFA) [8] was 0 in each case. The “percentage damage caused to the plant, ECHCG” value in [3] and in test [12] was 0 throughout. In addition, the “percentage damage caused to the plant, IPOHE” value in test [4] and in test [9] was 0 throughout. Moreover, the “percentage damage caused to the plant, ZEAMX” value in the test with Zea mays (ZEAMX) [5] and in the test on Zea mays (ZEAMX) [11] was 0 each time. Besides, the “percentage damage caused to the plant, AMARE” value in test [7] and in test [10] was 0 each time.

For `Cc1c(Cl)c(-c2ccc(Cl)c(Cl)c2)c(C(=O)O)c(=O)n1-c1ccc(Cl)cc1` [Compound 3, 5-chloro-1-(4-chlorophenyl)-4-(3,4-dichlorophenyl)-6-methyl-2-oxo-pyridine-3-carboxylic acid], the “percentage damage caused to the plant, AMAPA” value in test [1] and in [6] was 4 (4=61-80%) each time. The “percentage damage caused to the plant, SEFTA” value is recorded as 2 (2=21-40%) in the test with Setaria faberi (SETFA) [2] and 1 (1=1-20%) with Setaria faberi (SETFA) [8]. The “percentage damage caused to the plant, ECHCG” value in [3] is listed as 0; in test [12], 1 (1=1-20%). The “percentage damage caused to the plant, IPOHE” value is on record as 2 (2=21-40%) in test [4] and 0 in test [9]. Further, the “percentage damage caused to the plant, ZEAMX” value was 1 (1=1-20%) with Zea mays (ZEAMX) [5] and 0 with Zea mays (ZEAMX) [11]. Further, the figures for the “percentage damage caused to the plant, AMARE” value in test [7] and in test [10] were 4 (4=61-80%) and 2 (2=21-40%), respectively.

`Cc1cc(-c2ccc(Cl)c(Cl)c2)c(C(=O)O)c(=O)n1-c1cccc(C(F)(F)F)c1F` [Compound 17, 4-(3,4-dichlorophenyl)-1-[2-fluoro-3-(trifluoromethyl)phenyl]-6-methyl-2-oxo-pyridine-3-carboxylic acid]: the “percentage damage caused to the plant, AMAPA” value in [1] is 0; in [6], 2 (2=21-40%). The “percentage damage caused to the plant, SEFTA” value with Setaria faberi (SETFA) [2] was 0; in the test with Setaria faberi (SETFA) [8], 1 (1=1-20%). The “percentage damage caused to the plant, ECHCG” value in test [3] and in test [12] was 0 each time. The “percentage damage caused to the plant, IPOHE” value in test [4] and in [9] was 0 each time. Further, the “percentage damage caused to the plant, ZEAMX” value in the test on Zea mays (ZEAMX) [5] and in the test on Zea mays (ZEAMX) [11] was 0 throughout. Also, the “percentage damage caused to the plant, AMARE” value in test [7] is reported as 1 (1=1-20%); in [10] it was 0.

Turning to `Cc1c(C2CC2)c(-c2ccc(Cl)c(Cl)c2)c(C(=O)O)c(=O)n1-c1ccc(F)cc1F` [Compound 37, 5-cyclopropyl-4-(3,4-dichlorophenyl)-1-(2,4-difluorophenyl)-6-methyl-2-oxo-pyridine-3-carboxylic acid], the “percentage damage caused to the plant, AMAPA” value in [1] and in test [6] was 4 (4=61-80%) throughout. Also, the “percentage damage caused to the plant, SEFTA” value with Setaria faberi (SETFA) [2] and in the test with Setaria faberi (SETFA) [8] was 1 (1=1-20%) in each case. Further, the “percentage damage caused to the plant, ECHCG” value in test [3] is on record as 1 (1=1-20%); in test [12] it was 2 (2=21-40%). Moreover, the results for the “percentage damage caused to the plant, IPOHE” value in test [4] and in test [9] were 2 (2=21-40%) and 1 (1=1-20%), respectively. Besides, the “percentage damage caused to the plant, ZEAMX” value in the test on Zea mays (ZEAMX) [5] and in the test with Zea mays (ZEAMX) [11] was 1 (1=1-20%) each time. In addition, the “percentage damage caused to the plant, AMARE” value in [7] and in test [10] was 3 (3=41-60%) each time.

On to `Cc1c(O)c(-c2ccc(Cl)c(Cl)c2)c(C(=O)O)c(=O)n1-c1ccc(Cl)cc1F` [Compound 42, 1-(4-chloro-2-fluoro-phenyl)-4-(3,4-dichlorophenyl)-5-hydroxy-6-methyl-2-oxo-pyridine-3-carboxylic acid], for which the “percentage damage caused to the plant, AMAPA” value in [1] and in [6] was 2 (2=21-40%) each time. Moreover, the “percentage damage caused to the plant, SEFTA” value in the test with Setaria faberi (SETFA) [2] and with Setaria faberi (SETFA) [8] was 0 in each case. In addition, the “percentage damage caused to the plant, ECHCG” value in test [3] is reported as 0; in [12], 1 (1=1-20%). For the same molecule, the “percentage damage caused to the plant, IPOHE” value in [4] is on record as 1 (1=1-20%); in [9], 0. The “percentage damage caused to the plant, ZEAMX” value with Zea mays (ZEAMX) [5] and in the test on Zea mays (ZEAMX) [11] was 0 throughout. Further, the “percentage damage caused to the plant, AMARE” value in test [7] and in test [10] was 2 (2=21-40%) in each case.

In the case of `Cc1c(Cl)c(-c2ccc(Cl)c(Cl)c2)c(C(=O)O)c(=O)n1C` [Compound 4, 5-chloro-4-(3,4-dichlorophenyl)-1,6-dimethyl-2-oxo-pyridine-3-carboxylic acid], the entries for the “percentage damage caused to the plant, AMAPA” value in [1] and in test [6] were 1 (1=1-20%) and 2 (2=21-40%), respectively. The “percentage damage caused to the plant, SEFTA” value in the test on Setaria faberi (SETFA) [2] and in the test on Setaria faberi (SETFA) [8] was 0 in each case. The “percentage damage caused to the plant, ECHCG” value in test [3] and in test [12] was 0 throughout. The “percentage damage caused to the plant, IPOHE” value in test [4] and in test [9] was 0 each time. Further, the “percentage damage caused to the plant, ZEAMX” value with Zea mays (ZEAMX) [5] and with Zea mays (ZEAMX) [11] was 0 throughout. The “percentage damage caused to the plant, AMARE” value in [7] and in test [10] was 1 (1=1-20%) each time.
